Reference: paper PMC7224104 (Molecular Diversity, 2020)

What follows are compounds tested against T1, porcine liver COMT (Sus scrofa, UniProt Q99028) (assay: biochemical).
T1 sequence (Q99028 1-186): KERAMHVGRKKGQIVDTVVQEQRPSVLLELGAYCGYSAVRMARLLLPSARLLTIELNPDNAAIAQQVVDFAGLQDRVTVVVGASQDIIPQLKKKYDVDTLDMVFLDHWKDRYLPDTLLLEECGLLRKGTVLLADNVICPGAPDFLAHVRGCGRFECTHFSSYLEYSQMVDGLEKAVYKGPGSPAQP

| Structure (SMILES) | IC50 [µM] |
| --- | --- |
| Cc1c(O)c(=O)ccn1-c1ccc(Cl)cc1 [Compound 9, 1-(4-Chlorophenyl)-3-hydroxy-2-methylpyridin-4-one] | 9.31 ± 2.94 |
| Cc1c(O)c(=O)ccn1-c1cccc(Cl)c1 [Compound 8, 1-(3-Chlorophenyl)-3-hydroxy-2-methylpyridin-4-one] | 11.2 ± 1.01 |
| Cc1c(O)c(=O)ccn1C1CCCC1 [Compound 7, 1-Cyclopentyl-3-hydroxy-2-methylpyridin-4-one] | 19.8 ± 5.86 |
| Cc1c(O)c(=O)ccn1C1CCCCC1 [Compound 6, 1-Cyclohexyl-3-hydroxy-2-methylpyridin-4-one] | 12.2 ± 3.06 |
| Cc1c(O)c(=O)ccn1CCCc1ccccc1 [Compound 4, 3-Hydroxy-2-methyl-1-(3-phenylpropyl)pyridin-4-one] | 18.4 ± 0.974 |
| Cc1c(O)c(=O)ccn1-c1ccccc1 [Compound 1, 3-Hydroxy-2-methyl-1-phenylpyridin-4-one] | 10.9 ± 1.06 |
| Cc1c(O)c(=O)ccn1CCc1ccccc1 [Compound 3, 3-Hydroxy-2-methyl-1-(2-phenylethyl)pyridin-4-one] | 15 ± 2.1 |

Further compounds by falling IC50, results first:

| IC50 [µM] | Structure (SMILES) |
| --- | --- |
| 9.05 ± 1.25 | Cc1c(O)c(=O)ccn1CCCCc1ccccc1 [Compound 5, 3-Hydroxy-2-methyl-1-(4-phenylbutyl)pyridin-4-one] |
| 5.76 ± 0.664 | Cc1ccc(Cn2ccc(=O)c(O)c2C)cc1 [Compound 10, 3-Hydroxy-2-methyl-1-(4-methylbenzyl)pyridin-4-one] |
| 4.55 ± 0.545 | Cc1c(O)c(=O)ccn1Cc1ccccc1 [Compound 2, 1-Benzyl-3-hydroxy-2-methylpyridin-4-one] |
| 0.0068 | Cc1ccc(C(=O)c2cc(O)c(O)c([N+](=O)[O-])c2)cc1 [Tolcapone, reference compound] |
